Measurements reported in patent US9732070B2, “Protein kinase C inhibitors and uses thereof” (Rigel Pharmaceuticals, Inc., priority 2009, dated 2017).

System: Human primary T cells
Assay: IL-2 ELISA, human primary T cell, anti-CD3+CD28 stimulation
Type: cell-based
Conditions: IL-2 quantified by ELISA; human primary T cells stimulated with αCD3 and αCD28, 24 hours
Method: Human primary T cell isolation and culture: Human primary T cells were prepared as follows. Whole blood was obtained from a healthy volunteer, mixed 1:1 with PBS, layered on to Ficoll Hypaque (Amersham Pharmacia Biotech, Piscataway, N.J., Catalog #17-1440-03) in 2:1 blood/PBS:ficoll ratio and centrifuged for 30 minutes at 4° C. at 1750 rpm. The cells at the serum: ficoll interface were recovered and washed twice with 5 volumes of PBS. These freshly isolated human peripheral blood mononuclear cells were cultured in Yssel's medium containing 40 U/mL IL2 in a flask pre-coated with 1 μg/mL αCD3 and 5 μg/mL αCD28 (Anti-Human CD3, BD Pharmingen Catalog #555336, Anti-Human CD28, Beckman Coulter Catalog #IM1376). The cells were stimulated for 3-4 days, then transferred to a fresh flask and maintained in RPMI (RPMI-1640 with L-Glutamine; Mediatech, Inc., Herndon Va., cat. #10-040-CM) with 10% FBS and 40 U/mL IL-2. The primary T-cells were then washed twice with PBS to remove the IL-2.
Primary T cell stimulation and IL2 ELISA: Human primary T cells (100,000 cells per well) were pre-incubated with or without test compound in Yssel's medium for 1 hour at 37° C. Cells were then stimulated by transferring them to round-bottom 96-well plates pre-coated with 1 μg/ml αCD3 and 5 μg/ml αCD28. For counter assay, cells were instead stimulated by adding 8× stock solutions of PMA and ionomycin in Yssels (for final concentrations of 0.5 ng/ml PMA and 0.1 uM ionomycin, both from Calbiochem). Cells were incubated at 37° C. for 24 hours before 100 μL supernatants were harvested for quantification of IL-2 by ELISA using Human IL-2 Duoset ELISA Kit from R and D Systems, Cat. # DY202E.

Row | IC50 [µM] | SMILES
1 | < 0.5 | CC(C)Oc1c(-n2nnn(C)c2=O)cc(Nc2ncc(F)c(NC3CC(C)(C)NC(C)(C)C3)n2)cc1C(F)(F)F [I-51, N2-(4-isopropoxy-3-(4-methyl-4,5-dihysro-5-oxo-1H-tetrazol-1-yl)-5-trifluoromethylphenyl)-5-fluoro-N4-(2,2,6,6-tetramethylpiperidin-4-yl)pyrimidine-2,4-diamine]
2 | < 0.5 | CC(C)Oc1c(-n2nnn(C)c2=O)cc(Nc2ncc(F)c(NC3CC(C)(C)N(C)C(C)(C)C3)n2)cc1C(F)(F)F [I-52, N2-(4-isopropoxy-3-(4-methyl-4,5-dihysro-5-oxo-1H-tetrazol-1-yl)-5-trifluoromethylphenyl)-5-fluoro-N4-(1,2,2,6,6-pentamethylpiperidin-4-yl)pyrimidine-2,4-diamine]

Same assay, conditions: T-cell; IL-2 quantified by ELISA; human primary T cells stimulated with αCD3 and αCD28, 24 hours

Row | IC50 [µM] | SMILES
3 | < 0.5 | COc1cc(Nc2ncc(F)c(NC3CC(C)(C)N(C)C(C)(C)C3)n2)cc(-n2nnn(C)c2=O)c1 [I-31, N2-{5-methody-[3-(4-methyl)-1,2,3,4-tetrazol-5-one-1-yl]}phenyl-5-fluoro-N4-(1,2,2,6,6-pentamethylpiperidin-4-yl)-2,4-pyrimidinediamine]
4 | < 0.5 | COc1cc(Nc2ncc(F)c(NC3CC(C)(C)NC(C)(C)C3)n2)cc(-n2nnn(C)c2=O)c1 [I-32, N2-{5-methody-[3-(4-methyl)-1,2,3,4-tetrazol-5-one-1-yl]}phenyl-5-fluoro-N4-(2,2,6,6-tetramethylpiperidin-4-yl)-2,5-pyrimidinediamine]
5 | < 0.5 | CN1C(C)(C)CC(Nc2nc(Nc3ccc(C4CC4)c(-n4nnn(C)c4=O)c3)ncc2F)CC1(C)C [I-34, N2-{4-cyclopropyl-[3-(4-methyl)-1,2,3,4-tetrazol-5-one-1-yl]}phenyl-5-fluoro-N4-(1,2,2,6,6-pentamethylpiperidin-4-yl)-2,4-pyrimidinediamine]
6 | < 0.5 | Cn1nnn(-c2cc(Nc3ncc(F)c(NC4CC(C)(C)NC(C)(C)C4)n3)cc(C3CC3)c2)c1=O [I-35, N2-{5-cyclopropyl-[3-(4-methyl)-1,2,3,4-tetrazol-5-one-1-yl]}phenyl-5-fluoro-N4-(2,2,6,6-tetramethylpiperidin-4-yl)-2,4-pyrimidinediamine]
7 | < 0.5 | CN1C(C)(C)CC(Nc2nc(Nc3cc(C4CC4)cc(-n4nnn(C)c4=O)c3)ncc2F)CC1(C)C [I-36, N2-{5-cyclopropyl-[3-(4-methyl)-1,2,3,4-tetrazol-5-one-1-yl]}phenyl-5-fluoro-N4-(1,2,2,6,6-pentamethylpiperidin-4-yl)-2,4-pyrimidinediamine]
8 | 0.51 to 2.99 | Cn1nnn(-c2cc(Cl)cc(Nc3ncc(F)c(NC4CC(C)(C)NC(C)(C)C4)n3)c2)c1=O [I-37, N2-{5-chloro-[3-(4-methyl)-1,2,3,4-tetrazol-5-one-1-yl]}phenyl-5-fluoro-N4-(2,2,6,6-tetramethylpiperidin-4-yl)-2,4-pyrimidinediamine]
9 | < 0.5 | CN1C(C)(C)CC(Nc2nc(Nc3cc(-n4nnn(C)c4=O)c(C4CC4)c(C(F)(F)F)c3)ncc2F)CC1(C)C [I-40, N2-{4-cyclopropyl-5-trifluoromethyl-[3-(4-methyl)-1,2,3,4-tetrazol-5-one-1-yl]}phenyl-5-fluoro-N4-(1,2,2,6,6-pentamethylpiperidin-4-yl)-2,4-pyrimidinediamine]
10 | < 0.5 | Cc1cc(Nc2ncc(F)c(NC3CC(C)(C)N(C)C(C)(C)C3)n2)cc(-n2nnn(C)c2=O)c1C [I-45, N2-(4,5-dimethyl-3-(4-methyl-4,5-dihydro-5-oxo-1H-tetrazol-1-yl)phenyl)-5-fluoro-N4-(1,2,2,6,6-pentamethylpiperidin-4-yl)pyrimidine-2,4-diamine]
11 | < 0.5 | CN1C(C)(C)CC(Nc2nc(Nc3cc(-n4nnn(C)c4=O)cc(C(F)(F)F)c3)ncc2F)CC1(C)C [I-47, N2-(3-(4-methyl-4,5-dihydro-5-oxo-1H-tetrazol-1-yl)-5-trifluoromethylphenyl)-5-fluoro-N4-(1,2,2,6,6-pentamethylpiperidin-4-yl)pyrimidine-2,4-diamine]
12 | < 0.5 | CN1C(C)(C)CC(Nc2nc(Nc3cc(C#N)cc(-n4nnn(C)c4=O)c3)ncc2F)CC1(C)C [I-49]
13 | < 0.5 | Cn1nnn(-c2cc(C#N)cc(Nc3ncc(F)c(NC4CC(C)(C)NC(C)(C)C4)n3)c2)c1=O [I-50, N2-(5-cyano-3-(4-methyl-4,5-dihysro-5-oxo-1H-tetrazol-1-yl)phenyl)-5-fluoro-N4-(2,2,6,6-tetramethylpiperidin-4-yl)pyrimidine-2,4-diamine]
14 | < 0.5 | Cc1c(-n2nnn(C)c2=O)cc(Nc2ncc(F)c(NC3CC(C)(C)N(C)C(C)(C)C3)n2)cc1C(F)(F)F [I-54, N2-(4-methyl-3-(4-methyl-4,5-dihysro-5-oxo-1H-tetrazol-1-yl)-5-trifluoromethylphenyl)-5-fluoro-N4-(1,2,2,6,6-pentamethylpiperidin-4-yl)pyrimidine-2,4-diamine]

Continued, molecule first:

Row | SMILES | IC50 [µM]
15 | Cn1nnn(-c2cc(Nc3ncc(F)c(NC4CC(C)(C)NC(C)(C)C4)n3)ccc2Cl)c1=O [I-30, N2-{4-chloro-[3-(4-methyl)-1,2,3,4-tetrazol-5-one-1-yl]}phenyl-5-fluoro-N4-(2,2,6,6-tetramethylpiperidin-4-yl)-2,4-pyrimidinediamine] | < 0.5
16 | Cn1nnn(-c2cc(Nc3ncc(F)c(NC4CC(C)(C)NC(C)(C)C4)n3)ccc2C2CC2)c1=O [I-33, N2-{4-cyclopropyl-[3-(4-methyl)-1,2,3,4-tetrazol-5-one-1-yl]}phenyl-5-fluoro-N4-(2,2,6,6-tetramethylpiperidin-4-yl)-2,4-pyrimidinediamine] | < 0.5
17 | Cn1nnn(-c2cc(Nc3ncc(F)c(NC4CC(C)(C)NC(C)(C)C4)n3)cc(C(F)(F)F)c2Cl)c1=O [I-38, N2-{4-chloro-5-trifluoromethyl-[3-(4-methyl)-1,2,3,4-tetrazol-5-one-1-yl]}phenyl-5-fluoro-N4-(2,2,6,6-tetramethylpiperidin-4-yl)-2,4-pyrimidinediamine] | < 0.5
18 | Cn1nnn(-c2cc(Nc3ncc(F)c(NC4CC(C)(C)NC(C)(C)C4)n3)cc(C(F)(F)F)c2C2CC2)c1=O [I-39, N2-{4-cyclopropyl-5-trifluoromethyl-[3-(4-methyl)-1,2,3,4-tetrazol-5-one-1-yl]}phenyl-5-fluoro-N4-(2,2,6,6-tetramethylpiperidin-4-yl)2,5-pyrimidinediamine] | < 0.5
19 | Cn1nnn(-c2cc(Nc3ncc(C#N)c(NC4CC(C)(C)NC(C)(C)C4)n3)cc(C(F)(F)F)c2C2CC2)c1=O [I-41, 5-cyano-N2-{4-cyclopropyl-5-trifluoromethyl-[3-(4-methyl)-1,2,3,4-tetrazol-5-one-1-yl]}phenyl-N4-(2,2,6,6-tetramethylpiperidin-4-yl)-2,4-pyrimidinediamine] | < 0.5
20 | CN1C(C)(C)CC(Nc2nc(Nc3cc(-n4nnn(C)c4=O)c(C4CC4)c(C(F)(F)F)c3)ncc2C#N)CC1(C)C [I-42, 5-cyano-N2-{4-cyclopropyl-5-trifluoromethyl-[3-(4-methyl)-1,2,3,4-tetrazol-5-one-1-yl]}phenyl-N4-(1,2,2,6,6-pentamethylpiperidin-4-yl)-2,4-pyrimidinediamine] | < 0.5
21 | Cn1nnn(-c2cc(Nc3ncc(F)c(NC4CC(C)(C)NC(C)(C)C4)n3)cc(C3CC3)c2F)c1=O [I-43, N2-{5-cyclopropyl-4-fluoro-[3-(4-methyl)-1,2,3,4-tetrazol-5-one-1-yl]}phenyl-5-fluoro-N4-(2,2,6,6-tetramethylpiperidin-4-yl)-2,4-pyrimidinediamine] | < 0.5
22 | Cn1nnn(-c2cc(Nc3ncc(C#N)c(NC4CC(C)(C)NC(C)(C)C4)n3)cc(C3CC3)c2F)c1=O [I-44, 5-cyano-N2-{5-cyclopropyl-4-fluoro-[3-(4-methyl)-1,2,3,4-tetrazol-5-one-1-yl]}phenyl-N4-(2,2,6,6-tetramethylpiperidin-4-yl)-2,4-pyrimidinediamine] | < 0.5
23 | Cc1cc(Nc2ncc(F)c(NC3CC(C)(C)NC(C)(C)C3)n2)cc(-n2nnn(C)c2=O)c1C [I-46, N2-(4,5-dimethyl-3-(4-methyl-4,5-dihydro-5-oxo-1H-tetrazol-1-yl)phenyl)-5-fluoro-N4-(2,2,6,6-tetramethylpiperidin-4-yl)pyrimidine-2,4-diamine] | < 0.5
24 | Cn1nnn(-c2cc(Nc3ncc(F)c(NC4CC(C)(C)NC(C)(C)C4)n3)cc(C(F)(F)F)c2)c1=O [I-48, N2-(3-(4-methyl-4,5-dihydro-5-oso-1H-tetrazol-1-yl)-5-trifluoromethylphenyl)-5-fluoro-N4-(2,2,6,6-tetramethylpiperidin-4-yl)pyrimidine-2,5-diamine] | < 0.5
25 | Cc1c(-n2nnn(C)c2=O)cc(Nc2ncc(F)c(NC3CC(C)(C)NC(C)(C)C3)n2)cc1C(F)(F)F [I-53, N2-(4-methyl-3-(4-methyl-4,5-dihydro-5-oxo-1H-tetrazol-1-yl)-5-trifluoromethylphenyl)-5-fluoro-N4-(2,2,6,6-tetramethylpiperidin-4-yl)pyrimidine-2,5-diamine] | < 0.5
